Assay results as given in ChEMBL document CHEMBL3227940, “Cyclopropylamines as suicide substrates for cytochromes P-450” (J Med Chem, 1979).

Assays:
Assay type in all cases: ADME
Conditions in all cases: probe aminopyrine
cytochrome P450 [1] = test: Inactivation of cytochrome P450 in rat liver microsomes assessed as inhibition of aminopyrine demethylation at 1 mM preincubated for 12 mins measured 5 mins after substrate addition by Nash reagent based colorimetry (reference value: 0%)
cytochrome P450 [2] = test: Inactivation of cytochrome P450 in rat liver microsomes assessed as inhibition of aminopyrine demethylation at 1 mM measured without preincubation by Nash reagent based colorimetry (reference value: 0%)
cytochrome P450 [3] = test: Inactivation of cytochrome P450 in rat liver microsomes assessed as inhibition of aminopyrine demethylation at 0.1 mM preincubated for 12 mins measured 5 mins after substrate addition by Nash reagent based colorimetry (reference value: 0%)
cytochrome P450 [4] = test: Inactivation of cytochrome P450 in rat liver microsomes assessed as inhibition of aminopyrine demethylation at 1 mM measured without preincubation by Nash reagent based colorimetry in presence of GSH (reference value: 0%)
cytochrome P450 [5] = test: Inactivation of cytochrome P450 in rat liver microsomes assessed as inhibition of aminopyrine demethylation at 1 mM measured without preincubation by Nash reagent based colorimetry in presence of flavoprotein amine oxidase alternate substrate-inhibitor methimazole (reference value: 0%)
cytochrome P450 [6] = test: (§1) Inactivation of cytochrome P450 in rat liver microsomes assessed as inhibition of aminopyrine demethylation at 1 mM preincubated for 12 mins measured 5 mins after substrate addition by Nash reagent based colorimetry in presence of GSH (reference value: 0%)
cytochrome P450 [7] = test: as §1, with “flavoprotein amine oxidase alternate substrate-inhibitor methimazole” for “GSH”
cytochrome P450 [8] = test: Inactivation of cytochrome P450 in rat liver microsomes assessed as inhibition of aminopyrine demethylation at 1 mM preincubated for 12 mins measured 5 mins after substrate addition by Nash reagent based colorimetry in absence of cofactor NADPH-generating system (reference value: 0%)
cytochrome P450 [9] = test: Inactivation of cytochrome P450 in rat liver microsomes assessed as inhibition of aminopyrine demethylation at 1 mM preincubated for 12 mins measured 5 mins after substrate addition by Nash reagent based colorimetry in presence of CO/O2 (80:20) (reference value: 0%)

| SMILES | inhibition at 5 min, 1000 µM (cytochrome P450 [1]) [%] | other results |
| --- | --- | --- |
| c1ccc(CN2CCOCC2)cc1 | 34 | inhibition at 1000 µM (cytochrome P450 [2]): 27% |
| CC(C)NCc1ccccc1 | 9 | inhibition at 1000 µM (cytochrome P450 [2]): 9% |
| Cc1ccc(CNC2CC2)cc1 | 77 | – |
| C(CCNC1CC1)=C1c2ccccc2CCc2ccccc21 | – | inhibition at 5 min, 100 µM (cytochrome P450 [3]): 92% |
| Brc1ccc(CNC2CC2)cc1 | 79 | – |
| Clc1ccc(CNC2CC2)cc1 | 79 | – |
| COc1ccc(CNC2CC2)cc1 | 54 | – |
| CC(C)NCCC=C1c2ccccc2CCc2ccccc21 | – | inhibition at 5 min, 100 µM (cytochrome P450 [3]): 55% |

The next lines start with results.

| inhibition at 5 min, 1000 µM (cytochrome P450 [1]) [%] | SMILES | other results |
| --- | --- | --- |
| 25 | CC(C)NCc1ccc(Cl)cc1 | – |
| 0 | COc1ccc(CNC(C)C)cc1 | – |
| 27 | CC(C)NCc1ccc(Br)cc1 | – |
| 2 | Cc1ccc(CNC(C)C)cc1 | – |
| 61 | c1ccc(CNC2CC2)cc1 | inhibition at 1000 µM (cytochrome P450 [4]): 17%; inhibition at 1000 µM (cytochrome P450 [2]): 29%; inhibition at 1000 µM (cytochrome P450 [5]): 25%; inhibition at 5 min, 1000 µM (cytochrome P450 [6]): 62%; inhibition at 5 min, 1000 µM (cytochrome P450 [7]): 57%; inhibition at 5 min, 1000 µM (cytochrome P450 [8]): 13%; inhibition at 5 min, 1000 µM (cytochrome P450 [9]): 24% |
